In assay [1] the test system is L1210 cells. Description: In vitro antitumor screening on L1210 murine leukemia cell line (growth, Coulter counter). It is filed as cell-based. The note with it: Mus musculus, L1210, 72 h; three days, 37° C., 5% CO2; read-out: L1210 Leukemia in vitro ID50. The procedure: L1210 cells, a murine leukemia cell line, were grown in RPMI 1640 supplemented with 5% fetal bovine serum and gentamicin (50 μg/ml).
Drug dilutions were prepared in the appropriate solvent and 20 μl of each dilution were added to 24-well Linbro tissue culture plates, followed by the addition of M 2.0 ml of cell suspension containing 3×10^4cells per ml. Solvent and medium controls were included in each test. After incubation at 37° C. for three days in 5% CO2, the contents of each well were removed and the cells counted in a ZBI Coulter counter. Percent growth was calculated relative to the controls and the levels of drug activity were expressed as ID50 in moles per liter using probit paper.

For assay [2], the system named is HCT-8 (human colon adenocarcinoma) cells. The assay is described as follows: In vitro activity against HCT-8 human colon adenocarcinoma cells. It counts as cell-based. Conditions: HCT-8, 60-65 hours with compound, 37° C., read-out: ID50 against human colon adenocarcinoma. The procedure:
HCT-8 (human colon adenocarcinoma) cells are trypsinized using Trypsin-EDTA. A single cell suspension is achieved by passing the cells through a 26 gauge needle with a 20 cc syringe. A cell suspension is prepared using RPMI 1640+10% FCS+50 μg/ml garamycin with a cell concentration of approximately 30,000 cells/ml. The cell suspension is dispensed in Linbro 24-well plates; 1 ml/well. The plates are incubated for approximately 48 hours at 37° C. in a 5% CO2 atmosphere. At this time test compounds are added in the appropriate concentration. Five μl of the 200 μg/ml stock solution is added to each well in a primary test. Ten μl of the appropriate dilution is added to each well for a titration test. The plates are reincubated an additional 60-65 hours at 37° C. in a 5% CO2 atmosphere. The test is read by lysing the cells using a mix of cationic surfactant, glacial acetic acid and sodium chloride. […] of the lysed cell suspension from each well is added to 8 ml of diluent. Each sample is read on the Coulter counter (ZBI model). The activity of each sample is measured as a percentage of the controls and the data is reported as ID50, that is the molar quantity of drug required to kill 50% of the tumor cells.

Assay [3] relates to P388 Leukemia. The assay is described as follows: In vivo lymphocytic leukemia P388 test in mice. The arrangement: species or system CD2 F1 mice. The note with it: intraperitoneal, two single doses four days apart. The procedure:
The in vivo lymphocytic leukemia P388 test is carried out using the test system of the United States National Cancer Institute. The animals used are either male or female CD2 F1 mice. There are six to seven animals per test group. The tumor transplant is by intraperitoneal injection of dilute ascitic fluid containing cells of lymphocytic leukemia P388. The test compounds are administered intraperitoneally in two single doses with a four-day interval between doses at various dose levels following tumor inoculation. The animals are weighed and survivors are recorded on a regular basis for 30 days. A ratio of survival time for treated (T)/control (C) animals is calculated. The criterion for efficacy is T/C×100>125%. The positive control compound in this test is 5-fluorouracil. See Cancer Chemotherapy Reports, Part 3, 3, 1 (1972) for a comprehensive discussion of the protocol.

The test system of assay [4] is B. subtilis. Description: Antibacterial disk zone of inhibition, B. subtilis. It is filed as cell-based, Bacillus subtilis 04555. The note with it: Bacillus subtilis, read-out: Inhibition Zone diameter; for zone of inhibition at 10 µg/mL: 0.01 mg/ml; for zone of inhibition at 3000 µg/mL: 3.0 mg/ml; for zone of inhibition at 100 µg/mL: 0.1 mg/ml. Here is the method: (§1) Vegetative bacterial isolates are maintained on agar slants or in liquid media, hereby designated as inoculum media. The cultures are transferred at regular intervals in such media. (See Table IV for the corresponding inoculum media of each culture.) The organisms are generally transferred either onto agar slants or into liquid inoculum media and incubated at 37° C. (at 28° C. with Xanthomonas sp.) overnight (18-20 hours).
(§2) The microbial cells from the overnight agar slants are then scraped off and suspended in saline solution (0.85% NaCl). The microbial concentrations are adjusted to a light transmission of 8.6% using a PerkinElmer Model 35 spectrophotometer (550 nm). For the organisms that are maintained in liquid media, one of two procedures is followed: (1) the culture suspension is first centrifuged at 5000 rpm for five minutes. The pellet is resuspended in 0.85% saline to 8.6% light transmittancy; (2) an aliquot of the culture suspension is to be added directly to the assay medium.
Isolate spore suspensions (Bacillus sp.) are maintained at 4° C. These suspensions serve as the inoculum media for assays.
(§3) A given molten-agar assay medium, maintained in a flask at approximately 45° C., is inoculated with 0.16-10 ml of an appropriate cell or spore suspension per 100 ml of medium. Fifty ml of the inoculated medium is poured into a Bio-Assay dish (A/S Nunc; Gibco Laboratories Catalog Number 240835) and spread evenly across the bottom, then allowed to solidify at room temperature. Each agar dish is inverted and refrigerated until used.
(§4) The compounds or samples to be tested are dissolved in suitable solvents, e.g., alcohols, dimethylsulfoxide, or N,N-dimethylformamide. The samples are generally dissolved so that the final concentration of the solvent is <10%.* The compounds are tested at different concentrations: 3,000; 1,000; 500; 100; and 10 mcg/ml. Paper discs (12.7 mm diameter) saturated with a given concentration of test compound are placed onto the seeded agar dishes with a pair of forceps.
(§5) The disked agar dishes are incubated at 37° C. (28° C. for Xanthamonas sp.) for 18-20 hours. Active compounds show a zone of inhibition around the disc. The diameter of the zone is measured in mm. The zone diameter of active compounds ranges from a minimum of 13.5 mm to as high as 60 mm. The size of the zone diameter generally reflects the activity of the compound: the larger the zone the greater the activity.

Assay [5] deals with B. catarrhalis. Description: Antibacterial disk zone of inhibition, B. catarrhalis. It is filed as cell-based, Branhamella catarrhalis 03596. Conditions: Moraxella catarrhalis, read-out: Inhibition Zone diameter; for zone of inhibition at 500 µg/mL: 0.5 mg/ml; for zone of inhibition at 3000 µg/mL: 3.0 mg/ml; for zone of inhibition at 100 µg/mL: 0.1 mg/ml. Here is the method:
as §1, §2, §3, §4, §5

Assay [6] relates to M. faecalis. Description: Antibacterial disk zone of inhibition, M. faecalis (as headed). It counts as cell-based, Streptococcus faecalis 05045. The note with it: Enterococcus faecalis, read-out: Inhibition Zone diameter; for zone of inhibition at 10 µg/mL: 0.01 mg/ml; for zone of inhibition at 100 µg/mL: 0.1 mg/ml. Here is the method: as §1, §2, §3, §4, §5
Assay [7] has as its system S. lutea. Description: Antibacterial disk zone of inhibition, S. lutea (as headed). It counts as cell-based, Micrococcus luteus 05064. Conditions: Micrococcus luteus, read-out: Inhibition Zone diameter; for zone of inhibition at 3000 µg/mL: 3.0 mg/ml; for zone of inhibition at 10 µg/mL: 0.01 mg/ml; for zone of inhibition at 100 µg/mL: 0.1 mg/ml. Here is the method:
as §1, §2, §3, §4, §5

Assay [8] has as its system X. phaseoli. Description: Antibacterial disk zone of inhibition, X. phaseoli. It counts as cell-based, Xanthomonas phascoli 06002. The note with it: Xanthomonas; 3.0 mg/ml; read-out: Inhibition Zone diameter. Here is the method:
as §1, §2, §3, §4, §5

Some results are limits rather than exact numbers.

The record followed here is patent publication US4532240A, “Diaminopyrimidines” (Warner-Lambert Company, priority 1983, dated 1985).

In the case of `Cc1nc(N)nc(N)c1N1CCN(c2ccc(S(C)(=O)=O)cc2)CC1` [Example 9, 6-Methyl-5-[4-[4-(methylsulfonyl)phenyl]-1-piperazinyl]-2,4-pyrimidinediamine, hydrate (10:2)], the IC50 turned out to be 5.6 nM in assay [1] and 61 nM in assay [2]. In addition, the “T/C × 100” value in assay [3] (6.25 mg/kg) was found to be 128%; in assay [3] (12.5 mg/kg), 131%; in assay [3] (25 mg/kg), 140%; in assay [3] (50 mg/kg), 198%. Further, the zone of inhibition at 10 µg/mL was determined as 29 mm in assay [4] and 18 mm in assay [6]. In assay [5], the zone of inhibition at 500 µg/mL was determined as 14 mm. In addition, the zone of inhibition at 3000 µg/mL in assay [7] and in assay [8] was 0 mm each time.
As to `Cc1nc(N)nc(N)c1N1CCN(c2ccc(C#N)cc2)CC1` [Example 19, 5-[4-(4-cyanophenyl)-1-piperazinyl]-6-methyl-2,4-pyrimidinediamine], the figures for the IC50 in assay [1] and in assay [2] were 1500 nM and greater than 1000 nM, respectively. For the same compound, the zone of inhibition at 3000 µg/mL in assay [4], in assay [5], in assay [7] and in assay [8] was 0 mm in each case. In addition, the zone of inhibition at 100 µg/mL in assay [6] was 15 mm.
For `Cc1nc(N)nc(N)c1N1CCN(c2ccc(C(=O)N[C@@H](CCC(=O)O)C(=O)O)cc2)CC1` [drawing 21], the figures for the zone of inhibition at 10 µg/mL in assay [4] and in assay [5] (0.01 mg/ml) were 22 mm and 25 mm, respectively. Moreover, the zone of inhibition at 3000 µg/mL in assay [6] (3.0 mg/ml), in assay [7] and in assay [8] was 0 mm in each case.
As for `CC(=O)c1ccc(N2CCN(c3c(C)nc(N)nc3N)CC2)cc1` [Example 5, 5-[4-(4-acetylphenyl)-1-piperazinyl]-6-methyl-2,4-pyrimidinediamine, hydrate (100:18)], the IC50 turned out to be 5 nM in assay [1] and 510 nM in assay [2]. Further, the “T/C × 100” value was determined as 123% in assay [3] (6.25 mg/kg), 144% in assay [3] (12.5 mg/kg), 181% in assay [3] (25 mg/kg) and 250% in assay [3] (50 mg/kg). Also, the zone of inhibition at 100 µg/mL in assay [4] came out at 23 mm; in assay [5], 24 mm; in assay [6] it was 16 mm. The zone of inhibition at 10 µg/mL in assay [7] is 14 mm. Besides, the zone of inhibition at 3000 µg/mL in assay [8] came out at 0 mm.
For `CCCc1nc(N)nc(N)c1N1CCN(c2ccc(C(=O)O)cc2)CC1` [Example 15, 4-[4-(2,4-Diamino-6-propyl-5-pyrimidinyl)-1-piperazinyl]benzoic acid], the figures for the IC50 in assay [1] and in assay [2] were 43 nM and 280 nM, respectively. Besides, the zone of inhibition at 3000 µg/mL in assay [4] and in assay [8] was 0 mm throughout. Also, the zone of inhibition at 500 µg/mL in assay [5] stood at 19 mm. In addition, the zone of inhibition at 10 µg/mL in assay [6] came out at 15 mm. The zone of inhibition at 100 µg/mL in assay [7] came out at 16 mm.
For the compound `CCCc1nc(N)nc(N)c1N1CCN(c2ccc(C(=O)OCC)cc2)CC1` [Example 18, 4-[4-(2,4-Diamino-6-propyl-5-pyrimidinyl)-1-piperazinyl]benzoic acid, ethyl ester], the IC50 in assay [1] is 9.3 nM; in assay [2], 210 nM. Besides, the “T/C × 100” value in assay [3] (25 mg/kg) is 120%; in assay [3] (50 mg/kg) it was 149%. Further, the zone of inhibition at 3000 µg/mL in assay [4] and in assay [8] was 0 mm in each case. For the same compound, the zone of inhibition at 100 µg/mL in assay [5] worked out at 15 mm; in assay [7] it was 16 mm. For the same compound, the zone of inhibition at 10 µg/mL in assay [6] was 15 mm.
On to `CCc1nc(N)nc(N)c1N1CCN(c2ccc(C(=O)O)cc2)CC1` [Example 11, 4-[4-(2,4-Diamino-6-ethyl-5-pyrimidinyl)-1-piperazinyl]benzoic acid], for which the IC50 came to 10 nM in assay [1] and 570 nM in assay [2]. Also, the zone of inhibition at 100 µg/mL in assay [4] turned out to be 18 mm. Besides, the zone of inhibition at 500 µg/mL in assay [5] amounted to 27 mm. Moreover, the zone of inhibition at 10 µg/mL in assay [6] was found to be 19 mm; in assay [7] it was 16 mm. The zone of inhibition at 3000 µg/mL in assay [8] stood at 0 mm.
Turning to `CCCc1nc(N)nc(N)c1N1CCN(c2ccc(C(=O)NC(CCC(=O)O)C(=O)O)cc2)CC1` (centres unmarked) [drawing 24], the zone of inhibition at 3000 µg/mL in assay [4] amounted to 0 mm; in assay [5], 18 mm; in assay [8], 0 mm. Also, the zone of inhibition at 100 µg/mL in assay [6] amounted to 16 mm. For the same compound, the zone of inhibition at 1000 µg/mL in assay [7] (1.0 mg/ml) was 16 mm.
